According to publication PMC10910531:

What was measured:
[1] = CRE method A: lactone/lactam formation, T3P + DIPEA, internal nucleophile (pyridine/amine) cascade; settings: the molecule shown is the open-chain precursor, CHCl3, 50.0 mM, 22.0 °C
[2] = CRE method B: lactone/thiolactone/lactam formation, EDC.HCl + HOBt + DIPEA; settings: DMF, 100.0 mM, 22.0 °C
[3] = CRE method C: cyclic carbamate/urea formation with triphosgene + Et3N; settings: the molecule shown is the open-chain precursor, CH2Cl2, 100.0 mM, 22.0 °C
[4] = CRE method E: cyclic oxalate-type (1,2-dicarbonyl) formation with oxalyl chloride + Et3N; settings: the molecule shown is the open-chain precursor, CH2Cl2, 50.0 mM, 22.0 °C
[5] = CRE method F: cyclic sulfite/sulfamidite formation with SOCl2 + DMAP; settings: the molecule shown is the open-chain precursor, CH2Cl2, 50.0 mM, 22.0 °C, 18.0 h

For `CC(O)Cc1cccc(-c2ccccc2CC(=O)O)n1` (stereo not shown) [8 -> 9], the ring closure, isolated yield ([1]; 10-membered ring, 0.5 h) was 90%.
Compound `CC(O)Cc1cccc(-c2ccccc2CC(=O)O)c1` (stereo not shown) [10 -> 11 (control)] has a ring closure, isolated yield ([1]; 10-membered ring) of 0%.
In the case of `O=C1OCCCSCc2ccccc21` [12 -> 13], the ring closure, isolated yield ([2]; from O=C(O)c1ccccc1CSCCCO, 9-membered ring, 18.0 h) was 86%.
With `O=C1OCCCCCc2ccccc21` [14 -> 15 (control)] the ring closure, isolated yield ([2]; from O=C(O)c1ccccc1CCCCCO, 9-membered ring, 18.0 h) was 43%.
With `O=C(Cl)N(CCN(CCCO)c1ccccc1)c1ccccc1` [16 -> 17] the ring closure, isolated yield ([3]; 9-membered ring, 0.5 h) was 62%.
For `O=C(Cl)N(CCCCCCO)c1ccccc1` [18 -> 19 (control)], the ring closure, isolated yield ([3]; 9-membered ring) was 0%.
With `CN(CCCO)c1ccccc1N(C)C(=O)C(=O)Cl` [24 -> 25] the ring closure, isolated yield ([4]; 10-membered ring, 18.0 h) was 73%.
For `CN(C(=O)C(=O)Cl)c1ccccc1CCCCO` [26 -> 27 (control)], the ring closure, isolated yield ([4]; 10-membered ring, 18.0 h) was 9%.
With `O=S(Cl)OCCCN(CCCO)Cc1ccccc1` (stereo not shown) [28 -> 29] the ring closure, isolated yield ([5]; 10-membered ring) was 86%.
In the case of `O=S(Cl)OCCCCCCCO` (stereo not shown) [30 -> 31 (control)], the ring closure, isolated yield ([5]; 10-membered ring) was 8%.
Work on `CNCCCN(C)CCCN(C)C(=O)C(=O)Cl` [34 -> 98] yielded a ring closure, isolated yield ([4]; 11-membered ring, 18.0 h) of 71%.
For `O=C1OCCSCc2ccccc21` [47], the ring closure, isolated yield ([2]; from O=C(O)c1ccccc1CSCCO, 8-membered ring) was 88%.
Work on `O=C1OCCCSCc2c(Br)cccc21` [49c] yielded a ring closure, isolated yield ([2]; from O=C(O)c1cccc(Br)c1CSCCCO, 9-membered ring) of 67%.
Work on `O=C1OCCCSCc2c1cccc2[N+](=O)[O-]` [50] yielded a ring closure, isolated yield ([2]; from O=C(O)c1cccc([N+](=O)[O-])c1CSCCCO, 9-membered ring, 24.0 h) of 47%.
Work on `O=C1OCCCSCc2ccc(F)cc21` [S30 -> 48] yielded a ring closure, isolated yield ([2]; from O=C(O)c1cc(F)ccc1CSCCCO, 9-membered ring, 18.0 h) of 80%.
`CC1CCSCc2ccccc2C(=O)O1` (stereo not shown) [S43 -> 51] gave a ring closure, isolated yield ([2]; from CC(O)CCSCc1ccccc1C(=O)O, 9-membered ring, 16.0 h) of 71%.
Work on `CC(O)Cc1cncc(-c2ccccc2CC(=O)O)n1` (stereo not shown) [S52 -> 55] yielded a ring closure, isolated yield ([1]; 10-membered ring, 0.5 h) of 90%.
Work on `CN1CCOC(=O)c2ccccc2-c2ccccc21` [S63 -> 60] yielded a ring closure, isolated yield ([2]; from CN(CCO)c1ccccc1-c1ccccc1C(=O)O, 9-membered ring, 24.0 h) of 72%.
With `CN1CCCOC(=O)c2ccccc2-c2ccccc21` [S67 -> 61] the ring closure, isolated yield ([2]; from CN(CCCO)c1ccccc1-c1ccccc1C(=O)O, 10-membered ring, 24.0 h) was 72%.
`CC1CN(C)c2ccccc2-c2ccccc2C(=O)O1` (stereo not shown) [S69 -> 62] gave a ring closure, isolated yield ([2]; from CC(O)CN(C)c1ccccc1-c1ccccc1C(=O)O, 9-membered ring, 24.0 h) of 81%.
Work on `CC1CCN(C)c2ccccc2-c2ccccc2C(=O)O1` (stereo not shown) [S71 -> 63] yielded a ring closure, isolated yield ([2]; from CC(O)CCN(C)c1ccccc1-c1ccccc1C(=O)O, 10-membered ring, 24.0 h) of 78%.
Work on `C=CCNC(C)Cc1cccc(-c2ccccc2CC(=O)O)n1` (stereo not shown) [S74 -> 64 (2 steps)] yielded a ring closure, isolated yield ([1]; 10-membered ring, 0.5 h) of 75%.
`CC(Cc1cccc(-c2ccccc2CC(=O)O)n1)Nc1ccccc1` (stereo not shown) [S77 -> 65 (quantitative)] showed a ring closure, isolated yield ([1]; 10-membered ring, 0.5 h) of 100%.
For `CCNCCCN(CC)Cc1ccccc1C(=O)O` [S84-derived acid -> 68 (2 steps)], the ring closure, isolated yield ([1]; 9-membered ring) was 54%.
`O=C1SCCCSCc2ccccc21` [S86 -> 69] showed a ring closure, isolated yield ([2]; from O=C(O)c1ccccc1CSCCCS, 9-membered ring, 16.0 h) of 65%.
With `CN(CCCN)CCCC(=O)O` [S104-derived amino acid -> 78 (2 steps)] the ring closure, isolated yield ([1]; 9-membered ring) was 65%.
Work on `O=C1c2ccccc2CN(Cc2ccccc2)CC2CCCCN12` (stereo not shown) [S108 -> 79] yielded a ring closure, isolated yield ([2]; from O=C(O)c1ccccc1CN(Cc1ccccc1)CC1CCCCN1, 8-membered ring, 18.0 h) of 82%.
For `CN1CCCC(=O)Oc2ccccc21` [S114 -> 81 (2 steps)], the ring closure, isolated yield ([2]; from CN(CCCC(=O)O)c1ccccc1O, 8-membered ring, 18.0 h) was 78%.
With `CN(C(=O)Cl)c1ccccc1-c1cccc(CCO)n1` [S124 -> 84] the ring closure, isolated yield ([3]; 10-membered ring, 18.0 h) was 59%.
In the case of `CN(c1ccccc1-c1cccc(CCO)n1)S(=O)Cl` (stereo not shown) [S124 -> 86], the ring closure, isolated yield ([5]; 10-membered ring) was 46%.
`CN(C(=O)Cl)c1ccccc1-c1cccc(CC(O)c2ccccc2)n1` (stereo not shown) [S126 -> 85 (NMR yield)] showed a ring closure, isolated yield ([3]; 10-membered ring, 18.0 h) of 34%.
`CC(Cc1cccc(-c2ccccc2CO)n1)N(C(=O)C(=O)Cl)c1ccccc1` (stereo not shown) [S127 -> 87] showed a ring closure, isolated yield ([4]; 12-membered ring, 3.0 h) of 71%.
`CC(O)Cc1cccc(-c2ccccc2COS(=O)Cl)n1` (stereo not shown) [S129 -> 88] showed a ring closure, isolated yield ([5]; 11-membered ring) of 58%.
`O=S(Cl)OCCCN(CCCO)c1ccccc1` (stereo not shown) [S130 -> 89] gave a ring closure, isolated yield ([5]; 10-membered ring) of 40%.
With `O=C(Cl)N(CCCN(CCCO)c1ccccc1)c1ccccc1` [S138 -> 94] the ring closure, isolated yield ([3]; 10-membered ring, 18.0 h) was 78%.
In the case of `O=C(Cl)C(=O)N(CCc1cccc(CCNc2ccccc2)n1)c1ccccc1` [S140 -> 96], the ring closure, isolated yield ([4]; 11-membered ring, 0.5 h) was 51%.
`O=C(Cl)N(CCc1cccc(CCNc2ccccc2)n1)c1ccccc1` [S140 -> 97] showed a ring closure, isolated yield ([3]; 10-membered ring, 18.0 h) of 49%.
